Where two headings read alike, the source gives them in different places.
Tests used:
Hsp90β = Hsp90β (Homo sapiens (Human), UniProt P08238); assay: Fluorescence polarization assay (FITC-GDA tracer displacement); type: binding; settings: for Selectivity: Hsp90β over Hsp90α
Method: (§1) Florescence Polarization.
(§2) Assay was performed in 96-well format in black, flat bottom plates (Santa Cruz Biotechnology) with a final volume of 100 μL. […] Compounds were tested in triplicate wells (1% DMSO final concentration). For each plate, wells containing buffer only (background), tracer in buffer only (low polarization control), and protein and tracer in buffer with 1% DMSO (highpolarization control) were included. Plates were incubated at 4° C. with rocking for 24 h. […] Polarization values were correlated to % tracer bound and compound concentrations. The concentration at which the tracer was 50% displaced by the inhibitor was determined using Graphpad Prism.

Hsp90α = Hsp90α (Homo sapiens (Human), UniProt P07900); assay: as above; type: binding
Method: as §1, §2

MCF-7 = assay: Anti-proliferation activity; type: cell-based; settings: Homo sapiens, MCF7
NCI-H23 cells = assay: Anti-proliferation assay (MTS/PMS, 72 h); type: cell-based; settings: Homo sapiens, non-small cell lung cancer
Method: Cells were grown to confluence and seeded at 2000 cells/well/0.1 mL in a 96-well plate and placed back in the incubator for 24 h. Compounds or vehicle were administered at the desired concentrations (1% DMSO final concentration) and incubated for 72 h. The % viable cells was determined using the MTS/PMS cell proliferation kit (Promega) per the manufacturer's instructions. Cells treated with vehicle were normalized to 100% proliferation and values adjusted accordingly.

SkBr3 = assay: Anti-proliferation activity; type: cell-based; settings: Homo sapiens, SK-BR-3
Grp94 = assay: Fluorescence polarization assay (FITC-GDA tracer displacement); type: binding
Method: as §1, §2

[1] = fluorescence polarization, read-out: Kd Hsp90β

Sequence of Hsp90β (P08238 whole entry): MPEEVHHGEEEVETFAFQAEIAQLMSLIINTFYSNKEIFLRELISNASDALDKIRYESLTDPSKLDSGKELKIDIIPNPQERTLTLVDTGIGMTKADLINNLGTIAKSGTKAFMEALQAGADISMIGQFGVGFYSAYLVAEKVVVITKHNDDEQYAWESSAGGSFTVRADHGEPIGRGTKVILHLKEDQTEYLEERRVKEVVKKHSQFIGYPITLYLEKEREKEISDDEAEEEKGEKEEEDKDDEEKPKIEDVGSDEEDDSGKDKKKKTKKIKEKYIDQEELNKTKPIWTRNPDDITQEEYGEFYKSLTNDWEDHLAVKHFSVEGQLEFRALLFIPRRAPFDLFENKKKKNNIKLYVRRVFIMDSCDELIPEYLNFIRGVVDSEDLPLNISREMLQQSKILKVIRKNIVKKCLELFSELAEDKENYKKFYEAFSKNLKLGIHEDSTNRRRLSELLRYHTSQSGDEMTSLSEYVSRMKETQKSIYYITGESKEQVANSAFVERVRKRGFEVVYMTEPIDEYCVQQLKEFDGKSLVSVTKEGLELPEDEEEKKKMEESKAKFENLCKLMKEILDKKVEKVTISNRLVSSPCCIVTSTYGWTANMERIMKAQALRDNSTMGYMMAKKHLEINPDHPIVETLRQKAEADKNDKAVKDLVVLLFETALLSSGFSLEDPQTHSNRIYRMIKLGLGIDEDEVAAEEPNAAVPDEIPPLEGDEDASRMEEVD

Compound	Kd (Hsp90β; [1]) [µM]	Kd (Hsp90α; fluorescence polarization) [µM]	other results
COCc1cc(O)c(C(=O)N2Cc3ccccc3C2)cc1C(C)C [OMe]	> 50	> 50	
CC1Cc2c(C(C)C)cc(C(=O)N3Cc4ccccc4C3)c(O)c2C1=O (stereo not drawn) [KUNB28]	0.295	≥ 10	Selectivity (Hsp90β): ≥34
CCC1Cc2c(C(C)C)cc(C(=O)N3Cc4ccccc4C3)c(O)c2C1=O (stereo not drawn) [KUNB23]	0.58	≥ 10	Selectivity (Hsp90β): ≥17
CC(C)c1cc(C(=O)N2Cc3ccc(F)cc3C2)c(O)c(CO)c1O			IC50 (MCF-7): 13.2 µM; IC50 (NCI-H23 cells): 2.13 ± 0.7 µM
CC(C)c1cc(C(=O)N2Cc3ccccc3C2)c(O)c(CO)c1O [KUNB14, (2,4-Dihydroxy-3-(hydroxymethyl)-5-isopropylphenyl)(isoindolin-2-yl)methanone]	4.27		
C=CCc1c(O)c(C(=O)N2Cc3ccccc3C2)cc(C(C)C)c1OCOC [KUNB6, (3-Allyl-2-hydroxy-5-isopropyl-4-(methoxymethoxy)phenyl)(isoindolin-2-yl)methanone]			Kd (Hsp90β): ≥ 100 µM
CC(C)c1cc(C(=O)N2Cc3ccccc3C2)c(O)cc1CO [OH]	1.97 ± 0.07	4.21 ± 0.62	
COCOc1c(C(C)C)cc(C(=O)N2Cc3ccccc3C2)c(O)c1CCO [KUNB7, (2-Hydroxy-3-(2-hydroxyethyl)-5-isopropyl-4-(methoxymethoxy)phenyl) (isoindolin-2-yl)methanone]			Kd (Hsp90β): ≥ 100 µM
COCc1cc(O)c(C(=O)N2Cc3ccccc3C2)cc1C(C)C [Compound 3, (2-Hydroxy-5-isopropyl-4-(methoxymethyl)phenyl)(isoindolin-2-yl)methanone]			binding to Hsp90β (Hsp90β; at 10 μM): did not bind; binding to Hsp90α (Hsp90α; at 10 μM): did not bind
CC(C)c1cc(C(=O)N2Cc3ccccc3C2)c(O)c2[nH]ncc12			IC50 (MCF-7): 19.1 µM; IC50 (NCI-H23 cells): 13.7 µM; IC50 (SkBr3): 29.7 µM
CC(C)c1cc(C(=O)N2Cc3ccccc3C2)c(O)cc1C=O [Compound 4, 5-Hydroxy-4-(isoindoline-2-carbonyl)-2-isopropylbenzaldehyde]			Kd (Hsp90α): 1.55 µM
CC(C)c1cc(C(=O)N2Cc3ccc(F)cc3C2)c2oncc2c1O [KUNB31b, (5-fluoroisoindolin-2-yl)(4-hydroxy-5-isopropylbenzo[d]isoxazol-7-yl)methanone]			selectivity for Hsp90β over Grp94 (Grp94): ~50 fold; selectivity for Hsp90β over Hsp90α (Hsp90β): ~50 fold
CCCc1c(O)c(C(=O)N2Cc3ccccc3C2)cc(C(C)C)c1OCOC [KUNB5, (2-Hydroxy-5-isopropyl-4-(methoxymethoxy)-3-propylphenyl)(isoindolin-2-yl)methanone]			Kd (Hsp90β): 6.3 µM
CC(C)c1cc(C(=O)N2Cc3ccccc3C2)c(O)cc1CC#N [CN]		2.28 ± 0.12	
CCN1Cc2c(C(C)C)cc(C(=O)N3Cc4ccccc4C3)c(O)c2C1=O [KUNB26]	0.53	≥ 10	Selectivity (Hsp90β): ≥19
CC(C)c1cc(C(=O)N2Cc3ccccc3C2)c(O)c2cnoc12			IC50 (MCF-7): 28.3 ± 1.47 µM; IC50 (SkBr3): 38.2 ± 2.75 µM
CNCc1cc(O)c(C(=O)N2Cc3ccccc3C2)cc1C(C)C [NHCH3]	23.2 ± 1.07	> 100	
CC(C)c1cc(C(=O)N2Cc3ccccc3C2)c(O)c2c1C1C=NNC1O2 (stereo not drawn) [KUNB17]	0.72	≥ 10	Selectivity (Hsp90β): ≥14
CC(C)c1cc(C(=O)N2Cc3ccc(F)cc3C2)c(O)c2cnoc12			IC50 (MCF-7): 16.6 µM; IC50 (NCI-H23 cells): 5.76 µM

Compound	Kd (Hsp90β; [1]) [µM]	Kd (Hsp90α; fluorescence polarization) [µM]	other results
O=C(c1cc(Br)c2cn[nH]c2c1O)N1Cc2ccccc2C1			IC50 (NCI-H23 cells): 13.4 µM; IC50 (SkBr3): 23.6 µM
CC(C)c1cc(C(=O)N2Cc3ccccc3C2)c(O)cc1CC#N [Compound 2, 2-(5-Hydroxy-4-(isoindoline-2-carbonyl)-2-isopropylphenyl)acetonitrile]	0.97		selectivity for Hsp90β over Hsp90α (Hsp90β): ~2.5 fold
CC(C)c1cc(C(=O)N2Cc3ccccc3C2)c(O)c2c1CCC2=O [KUNB22]	0.11	9.3	Selectivity (Hsp90β): 85
CC(C)c1cc(C(=O)N2Cc3ccccc3C2)c(O)cc1CCl [Cl]	25.2 ± 1.45	> 100	
CC(C)c1cc(C(=O)N2Cc3ccccc3C2)c(O)c(CO)c1O [drawing 45]			IC50 (MCF-7): 13.7 ± 1.46 µM; IC50 (NCI-H23 cells): 3.9 ± 0.33 µM; IC50 (SkBr3): 9.13 ± 1.03 µM
C=Cc1c(O)c(C(=O)N2Cc3ccccc3C2)cc(C(C)C)c1O [KUNB2, (2,4-Dihydroxy-5-isopropyl-3-vinylphenyl)(isoindolin-2-yl)methanone]	5.24		
CCc1c(O)c(C(=O)N2Cc3ccccc3C2)cc(C(C)C)c1O [KUNB3, (3-Ethyl-2,4-dihydroxy-5-isopropylphenyl)(isoindolin-2-yl)methanone]	3.31		
CC(C)c1cc(C(=O)N2Cc3ccccc3C2)c(O)c(CN)c1O [KUNB4, (3-(Aminomethyl)-2,4-dihydroxy-5-isopropylphenyl)(isoindolin-2-yl)methanone]			Kd (Hsp90β): ≥ 100 µM
CCCC1Cc2c(C(C)C)cc(C(=O)N3Cc4ccccc4C3)c(O)c2C1=O (stereo not drawn) [KUNB24]	2.7	≥ 100	Selectivity (Hsp90β): ≥37
CC(C)c1cc(C(=O)N2Cc3ccccc3C2)c(O)c(C=O)c1O [KUNB1, 2,6-Dihydroxy-3-(isoindoline-2-carbonyl)-5-isopropylbenzaldehyde]	≥ 100		
CC(C)c1cc(C(=O)N2Cc3ccccc3C2)c(O)cc1CBr [Br]	0.73 ± 0.11	4.98 ± 0.97	
CC(C)c1cc(C(=O)N2Cc3ccccc3C2)c(O)c2c1CNC2=O [KUNB25]	0.33	≥ 10	Selectivity (Hsp90β): ≥30
CC(C)c1cc(C(=O)N2Cc3ccccc3C2)c(O)c2nc[nH]c12 [KUNB19]	6.3	≥ 100	Selectivity (Hsp90β): 1.6
CC(C)c1cc(C(=O)N2Cc3ccccc3C2)c(O)cc1C=O [CHO]			Kd (Hsp90α): 1.21 ± 0.12 µM
CC(C)c1ccc(O)c(C(=O)N2Cc3ccccc3C2)c1 [Compound 1]	1.63	3.21	selectivity for Hsp90β over Hsp90α (Hsp90β): ~2 fold
CC(C)c1cc(C(=O)N2Cc3ccccc3C2)c(O)cc1N [NH2]	0.71	0.46 ± 0.22	
CC(C)c1cc(C(=O)N2Cc3ccccc3C2)c(O)c2cn[nH]c12 [KUNB18]	3.71	82.5	Selectivity (Hsp90β): 22
CCc1cc(O)c(C(=O)N2Cc3ccccc3C2)cc1C(C)C [CH3]	> 50	> 50	

Source: patent US10927076B2, “HSP90B N-terminal isoform-selective inhibitors” (priority 2017, dated 2021)
